Measured values reported in PMC8007718, “A prostate-specific membrane antigen (PSMA)-targeted prodrug with a favorable in vivo toxicity profile” (Scientific Reports, 2021).
*1 amine or outer side, *2 acyl side, *3 side chain or, on linkers, in order; H or OH if unused. Where a SMILES comes first, the peptide text is derived from it. [ ]: non-standard residue; d: D form. The star is where a group is joined. X1 = O=C(O)CC[C@H](NC(=O)N[C@@H](CCCCNC(=O)CCCCCCC(=O)*)C(=O)O)C(=O)O; Dolaproine = CO[C@@H]([C@@H]1CCCN1)[C@@H](C)C(=O)O; Dil = CC[C@H](C)[C@H](NC)[C@@H](CC(=O)O)OC; PABC = O=C(OCc1ccc(N[*:1])cc1)[*:2]; X2 = C[C@@H](N*)[C@@H](O)c1ccccc1; Cit = NC(=O)NCCC[C@H](N)C(=O)O; NMeV = CN[C@H](C(=O)O)C(C)C

Target: T1, cathepsin B (Homo sapiens, UniProt P07858)
T1 construct: gene CTSB; recombinant cathepsin B
Experiment: cleavage by recombinant cathepsin B followed by HPLC (MMAE release)
Type: biochemical

In the case of CC[C@H](C)[C@@H]([C@@H](CC(=O)N1CCC[C@H]1[C@H](OC)[C@@H](C)C(=O)N[C@H](C)[C@@H](O)c1ccccc1)OC)N(C)C(=O)[C@@H](NC(=O)[C@H](C(C)C)N(C)C(=O)OCc1ccc(NC(=O)[C@H](CCCNC(N)=O)NC(=O)[C@@H](NC(=O)CCCCCCC(=O)NCCCC[C@H](NC(=O)N[C@@H](CCC(=O)O)C(=O)O)C(=O)O)C(C)C)cc1)C(C)C [SBPD-1, (6S,9S,24S,28S)-1-amino-6-((4-((5S,8S,11S)-11-((S)-sec-butyl)-12-(2-((S)-2-((1R,2R)-3-(((1S,2R)-1-hydroxy-1-phenylpropan-2-yl)amino)-1-methoxy-2-methyl-3-oxopropyl)pyrrolidin-1-yl)-2-oxoethyl)-5,8-diisopropyl-4,10-dimethyl-3,6,9-trioxo-2,13-dioxa-4,7,10-triazatetradecyl)phenyl)carbamoyl)-9-isopropyl-1,8,11,18,26-pentaoxo-2,7,10,19,25,27-hexaazatriacontane-24,28,30-tricarboxylic acid] (X1-V[Cit][PABC][NMeV]V[Dil][Dolaproine]-X2), the metabolised at 3 h was 80%.
